In patent US20240299393A1, “SMALL MOLECULE DISRUPTORS OF PROTEIN INTERACTIONS IN HISTONE DEACETYLASE COMPLEXES” (Dana-Farber Cancer Institute, Inc., priority 2021, published 2024):

Tests used:
[1] = tested on: CDKN1A, SOCS3, EGR1 in SK-N-BE(2)-C cells; test: RT-qPCR of SIN3 HDAC complex-regulated genes in neuroblastoma cells; assay type: cell-based, human; conditions: 100 μM for 16 h
Method: The RT-qPCR protocol used in this study was described elsewhere [Choi et al 2012]. Culture, RNA extraction, and compound treatments for neuroblastoma SK-N-BE(2)-C cells are described below. Approximately 1 μg RNA per sample was used for reverse transcription. Using a thermocycler, RNA was denatured in the presence of 0.2 μg 18 mer oligo-dT by heating the plate at 65° C. for 10 min. The plate was then immediately cooled down on ice to anneal oligo-dT on the poly-A tail of mRNA. A master mix of AffinityScript Multiple Temperature Reverses Transcriptase (Agilent, cat #600107) was prepared following the manufacturer's protocol, and mixed with RNA samples previously annealed with the oligo-dT. The plate was incubated at 42° C. for 2 h to generate cDNAs from mRNA templates. The reverse transcriptase was then denatured by heating the plate at 70° C. for 15 min. The resulting cDNA was diluted (1:20) in sterile, ultra pure water (ddH2O), and stored at −20° C. until used for qPCR. To measure gene expression, the diluted cDNA was mixed with 5 μL PowerUp SYBR Green master mix (Applied Biosystems, cat #A25743), and the mix of primers (forward+reverse, see FIG. 31; 0.3 μM final concentration) for a total volume of 10 μL. Two technical replicates were generated per cDNA sample in the 384-well PCR plate (Applied Biosystems, cat #4343370). The plate was tightly sealed with optical adhesive film (Applied Biosystems, cat #4311971). Quantitative PCR was conducted with a QuantStudio real-time PCR system from Applied Biosystems, with the following settings: 50° C./2 min, 95° C./10 min, 96° C./15 s/40 cycles, and 60° C./30 s. Dissociation curves were checked for each PCR product, to assess the specificity of the PCR amplicons.
SK-N-BE(2)-C cells were maintained in cell culture flasks supplemented with 10% Fetal bovine serum (FBS) and penicillin/streptomycin (PS) in Dulbecco's Modified Eagle's Medium (DMEM). The cells were maintained at a log phase in a humidified 5% CO2 incubator at 37° C. For testing the effect of the compounds on gene expression, approximately 0.1 million cells were seeded on each well of 24-well cell culture plates, with 1 mL 10% FBS+PS+DMEM. 24 h after seeding the cells, they were exposed to the compounds or DMSO control for 16 h in a humidified 5% CO2 incubator at 37° C., before harvesting them.
Cells were harvested for RNA extraction using Nucleospin 96 RNA (Macherey-Nagel, cat #740709.4) following manufacturer's protocol. Briefly, supernatant was removed, and the cells were gently washed with 1× phosphate-buffered saline. 300 μL lysis buffer were added to each well of 24 well cell culture plates. Roughly 0.1 million cells were used for harvesting each RNA sample. RNA concentration was measured for all purified RNA samples using a nanodrop spectrophotometer.

[2] = tested on: human neuroblastoma SK-N-BE(2)-C cells; test: Single-cell RNA-seq in neuroblastoma cells; assay type: cell-based; conditions: 1 μM TSA, 25 μM E6R, 16 h
Method: Cells were grown in DMEM media supplemented with 10% FBS+PS in a 5% CO2 incubator at 37° C. […] Cells were harvested by incubating them in TryplE for 10 min. Cells were spun down for 5 min at 300 g, and the supernatant was removed. Cells were counted via hemocytometer to 20,000 cells and resuspended in 200 μL of media.
High-throughput scRNA-seq was performed using the Seq-Well S^3 platform as previously described [Gierahn et al 2017, Hughes et al 2020]. Briefly, 20,000 cells were applied to the surface of each Seq-Well array which had been preloaded with uniquely barcoded poly(dT) mRNA capture beads (Chemgenes). Following cell loading, arrays were washed with RPMI and then sealed with a polycarbonate membrane and placed in a 37° C. incubator for 30 min. After membrane sealing, the arrays were submerged in a lysis buffer (5 M guanidine thiocyanate, 10 mM EDTA, 0.1% β-mercaptoethanol, 0.1% Sarkosyl) for 20 min, and subsequently incubated in a 2 M NaCl hybridization buffer for 40 min to promote hybridization of the mRNA to the bead-bound capture oligos. Next, the beads were removed from the arrays, and they were resuspended in a master mix for reverse transcription containing Maxima H Minus Reverse Transcriptase and buffer, dNTPs, RNase inhibitor, a template switch oligonucleotide, and PEG for 30 min at room temperature, and overnight at 52° C. with end-over-end rotation. […] Then, the eluted products were quantified using a Qubit. cDNA libraries were then created using Illumina Nextera XT DNA Library Preparation Kit. Library cleanup was performed using SPRI purification as described above and library concentration and size distribution was determined using a Qubit fluorometer and Agilent TapeStation. Libraries for each sample were sequenced on a NextSeq 500 and a Nextseq 2000 with the following read structures: read 1: 21 bp; read 2: 50 bp; and index 1: 8 bp, and read 1: 26 bp; read 2: 50 bp; and index 1: 8 bp respectively. For each library 21 bases were sequenced in read 1, containing the cell barcode (12 bp) information and a unique molecular identifier (UMII, 8 bp), whereas 50 bases were obtained for the read 2 sequence. After sequencing, reads were demultiplexed using Illumina bcl2fastq (v2.20.0.422) and the resulting FASTQs were concatenated and aligned to the human “GRCh38-2020-A” reference genome using StarSolo alignment pipeline (v2.7.9a) on Terra.
Subsequently, low quality cells were filtered out, including cells with fewer than 200 unique genes, greater than 9,000 unique genes, and greater than 40% mitochondrial reads, resulting in 46,751 cells and 25,468 genes. […] Differentially expressed genes were determined using the FindMarkers function on Seurat with “test.use=MAST” and default parameters. […]

| SMILES | effect on expression of CDKN1A, SOCS3 and EGR1 [1] | genes also downregulated by scRNA-seq, among 22 downregulated in bulk RNA-seq [2] | genes also upregulated in scRNA-seq, among 65 upregulated in bulk RNA-seq [2] |
| --- | --- | --- | --- |
| CC(/C=C/C(=O)NO)=C\[C@@H](C)C(=O)c1ccc(N(C)C)cc1 [TSA, trichostatin A] | derepressed | 13 genes | 43 genes |
| C[C@@H](NC(=O)c1c(O)n2ccccc2nc1=O)c1ccccc1 [E6R, 4-hydroxy-2-oxo-N—((R)-1-phenylethyl)-3,4-dihydro-2H-pyrido[, 2-a]pyrimidine-3-carboxamide] | only perturbed expression of two of the tested downstream genes | 5 genes | 22 genes |
